In patent US20240166652A1, “MODULATORS OF THE INTEGRATED STRESS PATHWAY” (Calico Life Sciences LLC, priority 2017, published 2024):

The compounds below were run on ATF4 luciferase reporter in HEK293T cells (assay: ATF4-Luc assay (ATF4 luciferase reporter, tunicamycin-treated HEK293T cells)). Conditions: Homo sapiens, HEK-293T; HEK293T cells carrying the ATF4 luciferase reporter, 1 μg/mL tunicamycin, 7 hours.
Type: cell-based, human

Row | SMILES | EC50
1 | CCc1nc(C)ccc1OCC(=O)NC12CC(NC(=O)COc3ccc(Cl)c(F)c3)(C1)C2 [Compound 239, 2-(4-chloro-3-fluorophenoxy)-N-(3-{2-[(2-ethyl-6-methylpyridin-3-yl)oxy]acetamido}bicyclo[1.1.1]pentan-1-yl)acetamide] | > 2 µM
2 | O=C(COc1ccc(Cl)c(F)c1)NC12CC(NC(=O)COc3cnc(F)c(Cl)c3)(C1)C2 [Compound 240, 2-(4-chloro-3-fluorophenoxy)-N-(3-{2-[(5-chloro-6-fluoropyridin-3-yl)oxy]acetamido}bicyclo[1.1.1]pentan-1-yl)acetamide] | < 0.01 µM
3 | COc1ccc(OCC(=O)NC23CC(NC(=O)COc4ccc(Cl)c(F)c4)(C2)C3)cn1 [Compound 241, 2-(4-chloro-3-fluorophenoxy)-N-(3-{2-[(6-methoxypyridin-3-yl)oxy]acetamido}bicyclo[1.1.1]pentan-1-yl)acetamide] | 0.01 to 0.05 µM
4 | Cc1cc(OCC(=O)NC23CC(NC(=O)COc4ccc(Cl)c(F)c4)(C2)C3)cnc1C#N [Compound 242, 2-(4-chloro-3-fluorophenoxy)-N-(3-{2-[(6-cyano-5-methylpyridin-3-yl)oxy]acetamido}bicyclo[1.1.1]pentan-1-yl)acetamide] | 0.01 to 0.05 µM
5 | Cc1cc(Cl)ncc1OCC(=O)NC12CC(NC(=O)COc3ccc(Cl)c(F)c3)(C1)C2 [Compound 243, 2-(4-chloro-3-fluorophenoxy)-N-(3-{2-[(6-chloro-4-methylpyridin-3-yl)oxy]acetamido}bicyclo[1.1.1]pentan-1-yl)acetamide] | 0.25 to 0.5 µM
6 | Cc1cc(OCC(=O)NC23CC(NC(=O)COc4ccc(Cl)c(F)c4)(C2)C3)cnc1F [Compound 244, 2-(4-chloro-3-fluorophenoxy)-N-(3-{2-[(6-fluoro-5-methylpyridin-3-yl)oxy]acetamido}bicyclo[1.1.1]pentan-1-yl)acetamide] | < 0.01 µM
7 | Cc1ccc(OCC(=O)NC23CC(NC(=O)COc4ccc(Cl)c(F)c4)(C2)C3)c(F)n1 [Compound 245, 2-(4-chloro-3-fluorophenoxy)-N-(3-{2-[(2-fluoro-6-methylpyridin-3-yl)oxy]acetamido}bicyclo[1.1.1]pentan-1-yl)acetamide] | 0.01 to 0.05 µM
8 | COc1cc(OCC(=O)NC23CC(NC(=O)COc4ccc(Cl)c(F)c4)(C2)C3)cnc1F [Compound 246, 2-(4-chloro-3-fluorophenoxy)-N-(3-{2-[(6-fluoro-5-methoxypyridin-3-yl)oxy]acetamido}bicyclo[1.1.1]pentan-1-yl)acetamide] | 0.01 to 0.05 µM
9 | Cc1cc(F)ncc1OCC(=O)NC12CC(NC(=O)COc3ccc(Cl)c(F)c3)(C1)C2 [Compound 247, 2-(4-chloro-3-fluorophenoxy)-N-(3-{2-[(6-fluoro-4-methylpyridin-3-yl)oxy]acetamido}bicyclo[1.1.1]pentan-1-yl)acetamide] | 0.05 to 0.25 µM
10 | CC(C)c1ccc(OCC(=O)NC23CC(NC(=O)COc4ccc(Cl)c(F)c4)(C2)C3)cn1 [Compound 248, 2-(4-chloro-3-fluorophenoxy)-N-[3-(2-{[6-(propan-2-yl)pyridin-3-yl]oxy}acetamido)bicyclo[1.1.1]pentan-1-yl]acetamide] | 0.05 to 0.25 µM
11 | Cc1nc(F)ccc1OCC(=O)NC12CC(NC(=O)COc3ccc(Cl)c(F)c3)(C1)C2 [Compound 249, 2-(4-chloro-3-fluorophenoxy)-N-(3-{2-[(6-fluoro-2-methylpyridin-3-yl)oxy]acetamido}bicyclo[1.1.1]pentan-1-yl)acetamide] | 0.25 to 0.5 µM
12 | Nc1ncc(OCC(=O)NC23CC(NC(=O)COc4ccc(Cl)c(F)c4)(C2)C3)cc1Cl [Compound 250, 2-[(6-amino-5-chloropyridin-3-yl)oxy]-N-{3-[2-(4-chloro-3-fluorophenoxy)acetamido]bicyclo[1.1.1]pentan-1-yl}acetamide] | 0.05 to 0.25 µM
13 | O=C(COc1ccc(C2CC2)nc1)NC12CC(NC(=O)COc3ccc(Cl)c(F)c3)(C1)C2 [Compound 251, 2-(4-chloro-3-fluorophenoxy)-N-(3-{2-[(6-cyclopropylpyridin-3-yl)oxy]acetamido}bicyclo[1.1.1]pentan-1-yl)acetamide] | 0.01 to 0.05 µM
14 | COc1ccc(OCC(=O)NC23CC(NC(=O)COc4ccc(Cl)c(F)c4)(C2)C3)c(C)n1 [Compound 252, 2-(4-chloro-3-fluorophenoxy)-N-(3-{2-[(6-methoxy-2-methylpyridin-3-yl)oxy]acetamido}bicyclo[1.1.1]pentan-1-yl)acetamide] | 0.05 to 0.25 µM
15 | COc1ncc(OCC(=O)NC23CC(NC(=O)COc4ccc(Cl)c(F)c4)(C2)C3)cc1C [Compound 253, 2-(4-chloro-3-fluorophenoxy)-N-(3-{2-[(6-methoxy-5-methylpyridin-3-yl)oxy]acetamido}bicyclo[1.1.1]pentan-1-yl)acetamide] | 0.01 to 0.05 µM
16 | O=C(COc1ccc(Cl)c(F)c1)NC12CC(NC(=O)COc3cnc4cc[nH]c4c3)(C1)C2 [Compound 254, 2-(4-chloro-3-fluorophenoxy)-N-(3-{2-[(1H-pyrrolo[3,2-b]pyridin-6-yl)oxy]acetamido}bicyclo[1.1.1]pentan-1-yl)acetamide] | 0.25 to 0.5 µM

Row | SMILES | EC50
17 | O=C(COc1ccc(Cl)c(F)c1)NC12CC(NC(=O)COc3cnc4ccoc4c3)(C1)C2 [Compound 255, 2-(4-chloro-3-fluorophenoxy)-N-(3-{2-[(furo[3,2-b]pyridin-6-yl)oxy]acetamido}bicyclo[1.1.1]pentan-1-yl)acetamide] | 0.05 to 0.25 µM
18 | O=C(COc1ccc(Cl)c(F)c1)NC12CC(NC(=O)COc3ccc(C(F)(F)F)nn3)(C1)C2 [Compound 256, 2-(4-chloro-3-fluorophenoxy)-N-[3-(2-{[6-(trifluoromethyl)pyridazin-3-yl]oxy}acetamido)bicyclo[1.1.1]pentan-1-yl]acetamide] | 0.05 to 0.25 µM
19 | CS(=O)(=O)c1ccc(OCC(=O)NC23CC(NC(=O)COc4ccc(Cl)c(F)c4)(C2)C3)cn1 [Compound 257, 2-(4-chloro-3-fluorophenoxy)-N-[3-(2-{[6-(methanesulfonyl)pyridin-3-yl]oxy}acetamido)bicyclo[1.1.1]pentan-1-yl]acetamide] | 0.25 to 0.5 µM
20 | O=C(COc1ccc(Cl)c(F)c1)NC12CC(NC(=O)COc3ccc4c(c3)OC(F)(F)O4)(C1)C2 [Compound 258, 2-(4-chloro-3-fluorophenoxy)-N-(3-{2-[(2,2-difluoro-2H-1,3-benzodioxol-5-yl)oxy]acetamido}bicyclo[1.1.1]pentan-1-yl)acetamide] | < 0.01 µM
21 | NCc1ccc(OCC(=O)NC23CC(NC(=O)COc4ccc(Cl)c(F)c4)(C2)C3)cn1 [Compound 259, 2-{[6-(aminomethyl)pyridin-3-yl]oxy}-N-{3-[2-(4-chloro-3-fluorophenoxy)acetamido]bicyclo[1.1.1]pentan-1-yl}acetamide] | 0.25 to 0.5 µM
22 | O=C(COc1ccc(Cl)c(F)c1)NC12CC(NC(=O)COc3ccc(Cl)c(I)c3)(C1)C2 [Compound 260, 2-(4-chloro-3-fluorophenoxy)-N-{3-[2-(4-chloro-3-iodophenoxy)acetamido]-bicyclo[1.1.1]pentan-1-yl}acetamide] | < 0.01 µM
23 | Cc1noc(C)c1-c1cc(OCC(=O)NC23CC(NC(=O)COc4ccc(Cl)c(F)c4)(C2)C3)ccc1Cl [Compound 261, 2-[4-chloro-3-(3,5-dimethyl-1,2-oxazol-4-yl)phenoxy]-N-{3-[2-(4-chloro-3-fluorophenoxy)acetamido]bicyclo[1.1.1]pentan-1-yl}acetamide] | 0.01 to 0.05 µM
24 | N#CCc1cc(OCC(=O)NC23CC(NC(=O)COc4ccc(Cl)c(F)c4)(C2)C3)ccc1Cl [Compound 262, 2-[4-chloro-3-(cyanomethyl)phenoxy]-N-{3-[2-(4-chloro-3-fluorophenoxy)acetamido]bicyclo[1.1.1]pentan-1-yl}acetamide] | 0.01 to 0.05 µM
25 | CC(O)c1ccc(OCC(=O)NC23CC(NC(=O)COc4ccc(Cl)c(F)c4)(C2)C3)cn1 (stereo not shown) [Compound 263, 2-(4-chloro-3-fluorophenoxy)-N-[3-(2-{[6-(1-hydroxyethyl)pyridin-3-yl]oxy}acetamido)bicyclo[1.1.1]pentan-1-yl]acetamide] | 0.5 to 2 µM
26 | COC(=O)c1ccc(OCC(=O)NC23CC(NC(=O)COc4ccc(Cl)c(F)c4)(C2)C3)cn1 [Compound 264, methyl 5-[2-({3-[2-(4-chloro-3-fluorophenoxy)acetamido]bicyclo-[1.1.1]pentan-1-yl}amino)-2-oxoethoxy]pyridine-2-carboxylate] | 0.5 to 2 µM
27 | O=C(COc1ccnc(C(F)(F)F)c1)NC12CC(NC(=O)COc3ccc4c(c3)OC(F)(F)O4)(C1)C2 [Compound 265, 2-[(2,2-difluoro-2H-1,3-benzodioxol-5-yl)oxy]-N-[3-(2-{[2-(trifluoromethyl)pyridin-4-yl]oxy}acetamido)bicyclo[1.1.1]pentan-1-yl]acetamide] | 0.01 to 0.05 µM
28 | O=C(COc1ccc(C(F)(F)F)nc1)NC12CC(NC(=O)COc3ccc4c(c3)OC(F)(F)O4)(C1)C2 [Compound 266, 2-[(2,2-difluoro-2H-1,3-benzodioxol-5-yl)oxy]-N-[3-(2-{[6-(trifluoromethyl)-pyridin-3-yl]oxy}acetamido)bicyclo[1.1.1]pentan-1-yl]acetamide] | < 0.01 µM
29 | N#Cc1ccc(OCC(=O)NC23CC(NC(=O)COc4ccc5c(c4)OC(F)(F)O5)(C2)C3)cn1 [Compound 267, 2-[(6-cyanopyridin-3-yl)oxy]-N-(3-{2-[(2,2-difluoro-2H-1,3-benzodioxol-5-yl)oxy]acetamido}bicyclo[1.1.1]pentan-1-yl)acetamide] | 0.05 to 0.25 µM
30 | O=C(COc1ccc(C2CC2)nc1)NC12CC(NC(=O)COc3ccc4c(c3)OC(F)(F)O4)(C1)C2 [Compound 268, 2-[(6-cyclopropylpyridin-3-yl)oxy]-N-(3-{2-[(2,2-difluoro-2H-1,3-benzodioxol-5-yl)oxy]acetamido}bicyclo[1.1.1]pentan-1-yl)acetamide] | 0.01 to 0.05 µM
31 | O=C(COc1cncc(C(F)(F)F)c1)NC12CC(NC(=O)COc3ccc4c(c3)OC(F)(F)O4)(C1)C2 [Compound 269, 2-[(2,2-difluoro-2H-1,3-benzodioxol-5-yl)oxy]-N-[3-(2-{[5-(trifluoromethyl)pyridin-3-yl]oxy}acetamido)bicyclo[1.1.1]pentan-1-yl]acetamide] | 0.01 to 0.05 µM
